Assay results from ChEMBL document CHEMBL2413072, “Synthesis and in vitro anticancer studies of novel C-2 arylidene congeners of lantadenes” (2013).

Columns and labels:
Assay type in all cases: functional
[1] = tested on: SK-MEL-5; assay: Growth inhibition of human SK-MEL-5 cells assessed as cell growth at 10^-7 M by sulforhodamine B assay; details: read-out: Activity
[2] = tested on: NCI-H460; assay: Growth inhibition of human NCI-H460 cells assessed as cell growth at 10^-6 M by sulforhodamine B assay; details: read-out: Activity
[3] = tested on: HOP-92; assay: Growth inhibition of human HOP92 cells assessed as cell growth at 10^-8 M by sulforhodamine B assay; details: read-out: Activity
[4] = tested on: UO-31; assay: Growth inhibition of human UO31 cells assessed as cell growth at 10^-7 M by sulforhodamine B assay; details: read-out: Activity
[5] = tested on: CCRF-CEM; assay: Growth inhibition of human CCRF-CEM cells assessed as cell growth at 10^-7 M by sulforhodamine B assay; details: read-out: Activity
[6] = tested on: A549; assay: Growth inhibition of human A549/ATCC cells assessed as cell growth at 10^-6 M by sulforhodamine B assay; details: read-out: Activity
[7] = tested on: MDA-MB-231; assay: Growth inhibition of human MDA-MB-231 cells assessed as cell growth at 10^-7 M by sulforhodamine B assay; details: read-out: Activity
[8] = tested on: SNB-75; assay: Growth inhibition of human SNB75 cells by sulforhodamine B assay
[9] = tested on: M14; assay: Growth inhibition of human M14 cells assessed as cell growth at 10^-4 M by sulforhodamine B assay; details: read-out: Activity
[10] = tested on: LOX IMVI; assay: Growth inhibition of human LOXIMVI cells by sulforhodamine B assay
[11] = tested on: 786-0; assay: Growth inhibition of human 786-0 cells assessed as cell growth at 10^-7 M by sulforhodamine B assay; details: read-out: Activity
[12] = tested on: T47D; assay: Growth inhibition of human T47D cells assessed as cell growth at 10^-6 M by sulforhodamine B assay; details: read-out: Activity
[13] = tested on: COLO 205; assay: Growth inhibition of human COLO205 cells by sulforhodamine B assay
[14] = tested on: MDA-MB-435; assay: Growth inhibition of human MDA-MB-435 cells by sulforhodamine B assay
[15] = tested on: OVCAR-8; assay: Growth inhibition of human OVCAR8 cells assessed as cell growth at 10^-7 M by sulforhodamine B assay; details: read-out: Activity
[16] = tested on: UACC-62; assay: Growth inhibition of human UACC62 cells assessed as cell growth at 10^-8 M by sulforhodamine B assay; details: read-out: Activity
[17] = tested on: NCI-H460; assay: Growth inhibition of human NCI-H460 cells assessed as cell growth at 10^-8 M by sulforhodamine B assay; details: read-out: Activity
[18] = tested on: UACC-257; assay: Growth inhibition of human UACC257 cells assessed as cell growth at 10^-8 M by sulforhodamine B assay; details: read-out: Activity
[19] = tested on: U-251; assay: Growth inhibition of human U251 cells assessed as cell growth at 10^-4 M by sulforhodamine B assay; details: read-out: Activity
[20] = tested on: SK-MEL-2; assay: Growth inhibition of human SK-MEL-2 cells assessed as cell growth at 10^-7 M by sulforhodamine B assay; details: read-out: Activity
[21] = tested on: HOP-62; assay: Growth inhibition of human HOP62 cells assessed as cell growth at 10^-8 M by sulforhodamine B assay; details: read-out: Activity
[22] = tested on: MCF7; assay: Growth inhibition of human MCF7 cells assessed as cell growth at 10^-7 M by sulforhodamine B assay; details: read-out: Activity
[23] = tested on: M14; assay: Growth inhibition of human M14 cells assessed as cell growth at 10^-7 M by sulforhodamine B assay; details: read-out: Activity
[24] = tested on: COLO 205; assay: Growth inhibition of human COLO205 cells assessed as cell growth at 10^-7 M by sulforhodamine B assay; details: read-out: Activity
[25] = tested on: CCRF-CEM; assay: Growth inhibition of human CCRF-CEM cells assessed as cell growth at 10^-4 M by sulforhodamine B assay; details: read-out: Activity
[26] = tested on: CAKI-1; assay: Growth inhibition of human CAKI-1 cells assessed as cell growth at 10^-4 M by sulforhodamine B assay; details: read-out: Activity
[27] = tested on: ACHN; assay: Growth inhibition of human ACHN cells by sulforhodamine B assay
[28] = tested on: NCI-H522; assay: Growth inhibition of human NCI-H522 cells assessed as cell growth at 10^-7 M by sulforhodamine B assay; details: read-out: Activity
[29] = tested on: OVCAR-5; assay: Growth inhibition of human OVCAR5 cells assessed as cell growth at 10^-6 M by sulforhodamine B assay; details: read-out: Activity
[30] = tested on: SNB-19; assay: Growth inhibition of human SNB19 cells assessed as cell growth at 10^-7 M by sulforhodamine B assay; details: read-out: Activity
[31] = tested on: SF-539; assay: Growth inhibition of human SF539 cells by sulforhodamine B assay
[32] = tested on: SNB-75; assay: Growth inhibition of human SNB75 cells assessed as cell growth at 10^-8 M by sulforhodamine B assay; details: read-out: Activity
[33] = tested on: SNB-75; assay: Growth inhibition of human SNB75 cells assessed as cell growth at 10^-7 M by sulforhodamine B assay; details: read-out: Activity
[34] = tested on: Malme-3M; assay: Growth inhibition of human MALME-3M cells by sulforhodamine B assay
[35] = tested on: M14; assay: Growth inhibition of human M14 cells assessed as cell growth at 10^-6 M by sulforhodamine B assay; details: read-out: Activity
[36] = tested on: RPMI-8226; assay: Growth inhibition of human RPMI8226 cells assessed as cell growth at 10^-6 M by sulforhodamine B assay; details: read-out: Activity
[37] = tested on: SN12C; assay: Growth inhibition of human SN12C cells assessed as cell growth at 10^-8 M by sulforhodamine B assay; details: read-out: Activity
[38] = tested on: HL-60(TB); assay: Growth inhibition of human HL-60(TB) cells assessed as cell growth at 10^-7 M by sulforhodamine B assay; details: read-out: Activity
[39] = tested on: OVCAR-5; assay: Growth inhibition of human OVCAR5 cells assessed as cell growth at 10^-4 M by sulforhodamine B assay; details: read-out: Activity
[40] = tested on: PC-3; assay: Growth inhibition of human PC3 cells assessed as cell growth at 10^-8 M by sulforhodamine B assay; details: read-out: Activity
[41] = tested on: TK-10; assay: Growth inhibition of human TK10 cells assessed as cell growth at 10^-6 M by sulforhodamine B assay; details: read-out: Activity
[42] = read-out: LC50 (the source's name)
[43] = read-out: pLC50 (the source's name) (converted)

SMILES: C/C=C(/C)C(=O)O[C@@H]1CC(C)(C)C[C@H]2C3=CC[C@@H]4[C@@]5(C)CC[C@H](O)C(C)(C)[C@@H]5CC[C@@]4(C)[C@]3(C)CC[C@@]12C(=O)O [Reduced Lantadene A]
- growth at 0.1 µM [1]: 92%
- growth at 1 µM [2]: 89%
- growth at 0.01 µM [3]: 91%
- growth at 0.1 µM [4]: 96%
- growth at 0.1 µM [5]: 100%
- growth at 1 µM [6]: 61%
- growth at 0.1 µM [7]: 95%
- GI50 ([8]; read-out: GI50): 1.77 µM
- CC50 [8, 42]: > 100 µM
- TGI ([8]; read-out: TGI): 5.37 µM
- GI50 ([8]; read-out: pGI50 (converted)): 1.78 µM
- CC50 [8, 43]: > 100 µM
- TGI ([8]; read-out: pTGI (converted)): 5.37 µM
- growth at 100 µM [9]: -48%
- GI50 ([10]; read-out: GI50): 3.39 µM
- CC50 [10, 42]: 66.8 µM
- TGI ([10]; read-out: TGI): 13 µM
- GI50 ([10]; read-out: pGI50 (converted)): 3.39 µM
- CC50 [10, 43]: 66.1 µM
- TGI ([10]; read-out: pTGI (converted)): 12.9 µM
- growth at 0.1 µM [11]: 97%
- growth at 1 µM [12]: 96%
- GI50 ([13]; read-out: GI50): 2.11 µM
- GI50 ([13]; read-out: pGI50 (converted)): 2.09 µM
- GI50 ([14]; read-out: GI50): 2.21 µM
- CC50 [14, 42]: > 100 µM
- TGI ([14]; read-out: TGI): 5.9 µM
- GI50 ([14]; read-out: pGI50 (converted)): 2.19 µM
- CC50 [14, 43]: > 100 µM
- TGI ([14]; read-out: pTGI (converted)): 5.89 µM
- growth at 0.1 µM [15]: 99%
- growth at 0.01 µM [16]: 96%
- growth at 0.01 µM [17]: 101%
- growth at 0.01 µM [18]: 93%
- growth at 100 µM [19]: -52%
- growth at 0.1 µM [20]: 106%
- growth at 0.01 µM [21]: 93%
- growth at 0.1 µM [22]: 96%
- growth at 0.1 µM [23]: 92%
- growth at 0.1 µM [24]: 107%
- growth at 100 µM [25]: -2%
- growth at 100 µM [26]: -65%
- GI50 ([27]; read-out: GI50): 1.82 µM
- CC50 [27, 42]: 9.07 µM
- TGI ([27]; read-out: TGI): 4.06 µM
- GI50 ([27]; read-out: pGI50 (converted)): 1.82 µM
- CC50 [27, 43]: 9.12 µM
- TGI ([27]; read-out: pTGI (converted)): 4.07 µM
- growth at 0.1 µM [28]: 100%
- growth at 1 µM [29]: 113%
- growth at 0.1 µM [30]: 90%
- GI50 ([31]; read-out: GI50): 3.37 µM
- CC50 [31, 42]: 56.3 µM
- TGI ([31]; read-out: TGI): 11.4 µM
- GI50 ([31]; read-out: pGI50 (converted)): 3.39 µM
- CC50 [31, 43]: 56.2 µM
- TGI ([31]; read-out: pTGI (converted)): 11.5 µM
- growth at 0.01 µM [32]: 78%
- growth at 0.1 µM [33]: 78%
- GI50 ([34]; read-out: GI50): 1.83 µM
- CC50 [34, 42]: 7.7 µM
- TGI ([34]; read-out: TGI): 3.75 µM
- GI50 ([34]; read-out: pGI50 (converted)): 1.82 µM
- CC50 [34, 43]: 7.76 µM
- TGI ([34]; read-out: pTGI (converted)): 3.72 µM
- growth at 1 µM [35]: 89%
- growth at 1 µM [36]: 70%
- growth at 0.01 µM [37]: 96%
- growth at 0.1 µM [38]: 110%
- growth at 100 µM [39]: -73%
- growth at 0.01 µM [40]: 92%
- growth at 1 µM [41]: 106%
